Source: US6274715A, “Tricyclic erythromycin derivatives” (priority 1997, dated 2001)
≈ marks a conversion by molar mass, not a printed value.

What was measured:
Assay type in all cases: cell-based
[1] = tested on: STAPHYLOCOCCUS AUREUS ATCC 6538P; assay: In vitro antibacterial activity, MIC, BHI agar dilution; settings: S. aureus ATCC 6538P, 35-37° C., 20 to 24 hours, unit assumed
[2] = tested on: STAPHYLOCOCCUS AUREUS A5177; assay: as above; settings: S. aureus A5177, unit assumed
[3] = tested on: STAPHYLOCOCCUS AUREUS A-5278; assay: as above; settings: S. aureus A-5278, unit assumed
[4] = tested on: STAPHYLOCOCCUS AUREUS CMX 642A; assay: as above; settings: S. aureus CMX 642A, unit assumed
[5] = tested on: STAPHYLOCOCCUS AUREUS NCTC10649M; assay: as above; settings: S. aureus NCTC10649M, unit assumed
[6] = tested on: STAPHYLOCOCCUS AUREUS CMX 553; assay: as above; settings: S. aureus CMX 553, unit assumed
[7] = tested on: STAPHYLOCOCCUS AUREUS 1775; assay: as above; settings: S. aureus 1775, unit assumed
[8] = tested on: STAPHYLOCOCCUS EPIDERMIDIS 3519; settings: S. epidermidis 3519; BHI agar; unit assumed
EN[…] ATCC 8043 = assay: In vitro antibacterial activity, MIC, BHI agar dilution; settings: E. faecium ATCC 8043, unit assumed
How it was run: (§1)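 Agar dilution in BHI: plates inoculated with 1:100 dilutions of organisms (1:10 for Micrococcus and Streptococcus), incubated 20-24 h at 35-37° C, then inspected for the lowest inhibitory concentration against a drug-free growth control.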

M[…] ATCC 4698 = assay: as above; settings: M. luteus ATCC 4698, unit assumed
How it was run: as §1

M[…] ATCC 9341 = assay: as above; settings: M. luteus ATCC 9341, unit assumed
How it was run: as §1

STR[…] 508 = assay: as above; settings: S. agalactiae CMX 508, unit assumed
How it was run: as §1

[9] = tested on: STREPTOCOCCUS BOVIS A-5169; assay: as above; settings: S. bovis A-5169, unit assumed
[10] = tested on: STREPTOCOCCUS PYOGENES EES61; assay: as above; settings: S. pyogenes EES61, unit assumed
[11] = tested on: STREPTOCOCCUS PYOGENES 930; assay: as above; settings: S. pyogenes 930, unit assumed
[12] = tested on: STREPTOCOCCUS PYOGENES PIU 2548; assay: as above; settings: S. pyogenes PIU 2548, unit assumed
ESCHERICHIA COLI JUHL = settings: E. coli JUHL; BHI agar; unit assumed
ESCHERICHIA COLI SS = assay: In vitro antibacterial activity, MIC, BHI agar dilution; settings: E. coli SS, unit assumed
ESCHERICHIA COLI DC-2 = assay: as above; settings: E. coli DC-2, unit assumed
ESCHERICHIA COLI H560 = assay: as above; settings: E. coli H560, unit assumed
ESCHERICHIA COLI KNK 437 = settings: E. coli KNK 437; BHI agar; unit assumed
[13] = tested on: ENTEROBACTER AEROGENES ATCC 13048; assay: In vitro antibacterial activity, MIC, BHI agar dilution; settings: E. aerogenes ATCC 13048, unit assumed
[14] = tested on: KLEBSIELLA PNEUMONIAE ATCC 8045; assay: as above; settings: K. pneumoniae ATCC 8045, unit assumed
[15] = tested on: PROVIDENCIA STUARTII CMX 640; settings: P. stuartii CMX 640; BHI agar; unit assumed
[16] = tested on: PSEUDOMONAS AERUGINOSA BMH10; assay: In vitro antibacterial activity, MIC, BHI agar dilution; settings: P. aeruginosa BMH10, unit assumed
[17] = tested on: PSEUDOMONAS AERUGINOSA 5007; assay: as above; settings: P. aeruginosa 5007, unit assumed
[18] = tested on: PSEUDOMONAS AERUGINOSA K799/WT; assay: as above; settings: P. aeruginosa K799/WT, unit assumed
[19] = tested on: PSEUDOMONAS AERUGINOSA K799/61; assay: as above; settings: P. aeruginosa K799/61, unit assumed
PSEUDOMONAS CEPACIA 296I = assay: as above; settings: P. cepacia 296I, unit assumed
[20] = tested on: PSEUDOMONAS AERUGINOSA DPHD-5263; assay: as above; settings: P. aeruginosa DPHD-5263, unit assumed
[21] = tested on: PSEUDOMONAS AERUGINOSA DPHD-2862; assay: as above; settings: P. aeruginosa DPHD-2862, unit assumed
CANDIDA ALBICANS CCH 442 = assay: as above; settings: C. albicans CCH 442, unit assumed
[22] = tested on: MYCOBACTERIUM SMEGMATIS ATCC 114; assay: as above; settings: M. smegmatis ATCC 114, unit assumed

With `CC[C@H]1OC(=O)[C@H](C)C(=O)[C@H](C)[C@@H](O[C@@H]2O[C@H](C)C[C@H](N(C)C)[C@H]2O)[C@](C)(OC)C[C@@H](C)C2=NC[C@H](CSCc3ccccc3)N3C(=O)O[C@@]1(C)[C@H]3[C@H]2C` [Example 66] the MIC [1] was 0.1 µg/mL (≈ 0.129 µM), the MIC [2] was 0.1 µg/mL (≈ 0.129 µM) and the MIC [3] was > 100 µg/mL. The MIC [4] was 0.2 µg/mL (≈ 0.258 µM), the MIC [5] was 0.1 µg/mL (≈ 0.129 µM) and the MIC [6] was 0.2 µg/mL (≈ 0.258 µM). The MIC [7] was > 100 µg/mL, the MIC [8] was 0.2 µg/mL (≈ 0.258 µM) and the MIC (EN[…] ATCC 8043) was 0.02 µg/mL (≈ 0.0258 µM). It also gave an MIC (M[…] ATCC 4698) of 0.2 µg/mL (≈ 0.258 µM), an MIC (M[…] ATCC 9341) of 0.02 µg/mL (≈ 0.0258 µM) and an MIC (STR[…] 508) of 0.01 µg/mL (≈ 0.0129 µM). For the same molecule, the MIC [9] was 0.01 µg/mL (≈ 0.0129 µM), the MIC [10] was 0.01 µg/mL (≈ 0.0129 µM) and the MIC [11] was > 100 µg/mL. The MIC [12] was 0.39 µg/mL (≈ 0.504 µM), the MIC (ESCHERICHIA COLI JUHL) was 25 µg/mL (≈ 32.3 µM) and the MIC (ESCHERICHIA COLI SS) was 0.39 µg/mL (≈ 0.504 µM). The MIC (ESCHERICHIA COLI DC-2) was 12.5 µg/mL (≈ 16.1 µM), the MIC (ESCHERICHIA COLI H560) was 12.5 µg/mL (≈ 16.1 µM) and the MIC (ESCHERICHIA COLI KNK 437) was 25 µg/mL (≈ 32.3 µM). The MIC [13] was > 100 µg/mL, the MIC [14] was > 100 µg/mL and the MIC [15] was > 100 µg/mL. For the same molecule, the MIC [16] was 100 µg/mL (≈ 129 µM), the MIC [17] was > 100 µg/mL and the MIC [18] was 100 µg/mL (≈ 129 µM). The MIC [19] was 0.39 µg/mL (≈ 0.504 µM), the MIC (PSEUDOMONAS CEPACIA 296I) was 100 µg/mL (≈ 129 µM) and the MIC [20] was 100 µg/mL (≈ 129 µM). For the same molecule, the MIC [21] was > 100 µg/mL, the MIC (CANDIDA ALBICANS CCH 442) was > 100 µg/mL and the MIC [22] was 0.39 µg/mL (≈ 0.504 µM).

With `CC[C@H]1OC(=O)[C@H](C)C(=O)[C@H](C)[C@@H](O[C@@H]2O[C@H](C)C[C@H](N(C)C)[C@H]2O)[C@](C)(OC)C[C@@H](C)C2=NC[C@H](Cc3cscn3)N3C(=O)O[C@@]1(C)[C@H]3[C@H]2C` [Example 69] the MIC [1] was 0.2 µg/mL (≈ 0.272 µM), the MIC [2] was 0.2 µg/mL (≈ 0.272 µM) and the MIC [3] was > 100 µg/mL. It also gave an MIC [4] of 0.39 µg/mL (≈ 0.531 µM), an MIC [5] of 0.2 µg/mL (≈ 0.272 µM) and an MIC [6] of 0.2 µg/mL (≈ 0.272 µM). The MIC [7] was > 100 µg/mL, the MIC [8] was 0.2 µg/mL (≈ 0.272 µM) and the MIC (EN[…] ATCC 8043) was 0.1 µg/mL (≈ 0.136 µM). For the same molecule, the MIC (M[…] ATCC 4698) was 0.2 µg/mL (≈ 0.272 µM), the MIC (M[…] ATCC 9341) was 0.05 µg/mL (≈ 0.068 µM) and the MIC (STR[…] 508) was 0.02 µg/mL (≈ 0.0272 µM). For the same molecule, the MIC [9] was 0.01 µg/mL (≈ 0.0136 µM), the MIC [10] was 0.02 µg/mL (≈ 0.0272 µM) and the MIC [11] was > 100 µg/mL. For the same molecule, the MIC [12] was 0.39 µg/mL (≈ 0.531 µM), the MIC (ESCHERICHIA COLI JUHL) was 100 µg/mL (≈ 136 µM) and the MIC (ESCHERICHIA COLI SS) was 0.39 µg/mL (≈ 0.531 µM). For the same molecule, the MIC (ESCHERICHIA COLI DC-2) was 50 µg/mL (≈ 68 µM), the MIC (ESCHERICHIA COLI H560) was 50 µg/mL (≈ 68 µM) and the MIC (ESCHERICHIA COLI KNK 437) was > 100 µg/mL. The MIC [13] was > 100 µg/mL, the MIC [14] was > 100 µg/mL and the MIC [15] was > 100 µg/mL. For the same molecule, the MIC [16] was > 100 µg/mL, the MIC [17] was > 100 µg/mL and the MIC [18] was > 100 µg/mL. The MIC [19] was 0.78 µg/mL (≈ 1.06 µM), the MIC (PSEUDOMONAS CEPACIA 296I) was > 100 µg/mL and the MIC [20] was > 100 µg/mL. For the same molecule, the MIC [21] was > 100 µg/mL, the MIC (CANDIDA ALBICANS CCH 442) was > 100 µg/mL and the MIC [22] was 3.1 µg/mL (≈ 4.22 µM).

For `C=CCN1CC2N=C3[C@H](C)C[C@@](C)(OC)[C@H](O[C@@H]4O[C@H](C)C[C@H](N(C)C)[C@H]4O)[C@@H](C)C(=O)[C@@H](C)C(=O)O[C@H](CC)[C@@]4(C)OC(=O)N(C2C1)[C@@H]4[C@H]3C` (some centres unmarked) [Example 116], the MIC [1] was 0.78 µg/mL (≈ 1.08 µM), the MIC [2] was 0.78 µg/mL (≈ 1.08 µM) and the MIC [3] was > 100 µg/mL. It also gave an MIC [4] of 0.78 µg/mL (≈ 1.08 µM), an MIC [5] of 0.39 µg/mL (≈ 0.542 µM) and an MIC [6] of 0.78 µg/mL (≈ 1.08 µM). For the same molecule, the MIC [7] was > 100 µg/mL, the MIC [8] was 0.78 µg/mL (≈ 1.08 µM) and the MIC (EN[…] ATCC 8043) was 0.2 µg/mL (≈ 0.278 µM). For the same molecule, the MIC (M[…] ATCC 4698) was 0.39 µg/mL (≈ 0.542 µM), the MIC (M[…] ATCC 9341) was 0.2 µg/mL (≈ 0.278 µM) and the MIC (STR[…] 508) was 0.05 µg/mL (≈ 0.0695 µM). For the same molecule, the MIC [9] was ≤ 0.005 µg/mL, the MIC [11] was > 100 µg/mL and the MIC [12] was 0.78 µg/mL (≈ 1.08 µM). It also gave an MIC (ESCHERICHIA COLI JUHL) of 50 µg/mL (≈ 69.5 µM), an MIC (ESCHERICHIA COLI SS) of 0.39 µg/mL (≈ 0.542 µM) and an MIC (ESCHERICHIA COLI DC-2) of 100 µg/mL (≈ 139 µM). The MIC (ESCHERICHIA COLI H560) was 50 µg/mL (≈ 69.5 µM), the MIC (ESCHERICHIA COLI KNK 437) was > 100 µg/mL and the MIC [13] was > 100 µg/mL. For the same molecule, the MIC [14] was > 100 µg/mL, the MIC [15] was > 100 µg/mL and the MIC [16] was 100 µg/mL (≈ 139 µM). The MIC [17] was > 100 µg/mL, the MIC [18] was > 100 µg/mL and the MIC [19] was 3.1 µg/mL (≈ 4.31 µM). The MIC (PSEUDOMONAS CEPACIA 296I) was > 100 µg/mL, the MIC [20] was > 100 µg/mL and the MIC [21] was > 100 µg/mL. The MIC (CANDIDA ALBICANS CCH 442) was > 100 µg/mL and the MIC [22] was 1.56 µg/mL (≈ 2.17 µM).
